Reference: US11076594B2, “Pyrazolone compound or salt thereof, preparation method therefor, herbicide composition and use thereof” (QINGDAO KINGAGROOT CHEMICAL COMPOUNDS CO., LTD., priority 2015, dated 2021)

Experiments:
Type in all cases: in vivo
Indian mallow = test: weed control effect in post-emergence stage (Table 1); set-up: key: Level 10: completely dead; Level 9: above 95% growth control rate; Level 8: above 90% growth control rate; Level 7: above 80% growth control rate; Level 6: above 70% growth control rate; Level 5: above 60% growth control rate; Level 4: above 50% growth control rate; Level 3: above 20% growth control rate; Level 2: 5%-20% growth control rate; Level 1: below 5% growth control rate; conditions: post-emergence spray at 4-5 leaf stage, 250 g/ha active ingredient with 450 kg/ha water, rated after 3 weeks in greenhouse
Outline: (§1)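 Fresh-weight-based growth control rate was assessed 3 weeks after spraying. Test compound, dissolved in acetone, with tween 80 added and diluted in water, was sprayed onto greenhouse-grown, pot-cultured weeds and crop plants at 4-5 leaves, 2-3 weeks post-sowing.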

bidens bipinnata = test: as above; set-up: key: Level 10: completely dead; Level 9: above 95% growth control rate; Level 8: above 90% growth control rate; Level 7: above 80% growth control rate; Level 6: above 70% growth control rate; Level 5: above 60% growth control rate; Level 4: above 50% growth control rate; Level 3: above 20% growth control rate; Level 2: 5%-20% growth control rate; Level 1: below 5% growth control rate; conditions: post-emergence spray at 4-5 leaf stage, 250 g/ha active ingredient with 450 kg/ha water, rated after 3 weeks in greenhouse
Outline: as §1

crab grass = test: as above; set-up: key: Level 10: completely dead; Level 9: above 95% growth control rate; Level 8: above 90% growth control rate; Level 7: above 80% growth control rate; Level 6: above 70% growth control rate; Level 5: above 60% growth control rate; Level 4: above 50% growth control rate; Level 3: above 20% growth control rate; Level 2: 5%-20% growth control rate; Level 1: below 5% growth control rate; conditions: post-emergence spray at 4-5 leaf stage, 250 g/ha active ingredient with 450 kg/ha water, rated after 3 weeks in greenhouse
Outline: as §1

echinochloa = test: as above; set-up: key: Level 10: completely dead; Level 9: above 95% growth control rate; Level 8: above 90% growth control rate; Level 7: above 80% growth control rate; Level 6: above 70% growth control rate; Level 5: above 60% growth control rate; Level 4: above 50% growth control rate; Level 3: above 20% growth control rate; Level 2: 5%-20% growth control rate; Level 1: below 5% growth control rate; conditions: post-emergence spray at 4-5 leaf stage, 250 g/ha active ingredient with 450 kg/ha water, rated after 3 weeks in greenhouse
Outline: as §1

foxtail = test: as above; set-up: key: Level 10: completely dead; Level 9: above 95% growth control rate; Level 8: above 90% growth control rate; Level 7: above 80% growth control rate; Level 6: above 70% growth control rate; Level 5: above 60% growth control rate; Level 4: above 50% growth control rate; Level 3: above 20% growth control rate; Level 2: 5%-20% growth control rate; Level 1: below 5% growth control rate; conditions: post-emergence spray at 4-5 leaf stage, 250 g/ha active ingredient with 450 kg/ha water, rated after 3 weeks in greenhouse
Outline: as §1

rorippa indica = test: as above; set-up: key: Level 10: completely dead; Level 9: above 95% growth control rate; Level 8: above 90% growth control rate; Level 7: above 80% growth control rate; Level 6: above 70% growth control rate; Level 5: above 60% growth control rate; Level 4: above 50% growth control rate; Level 3: above 20% growth control rate; Level 2: 5%-20% growth control rate; Level 1: below 5% growth control rate; conditions: post-emergence spray at 4-5 leaf stage, 250 g/ha active ingredient with 450 kg/ha water, rated after 3 weeks in greenhouse
Outline: as §1

corn = test: post-emergence stage experiment, crop (Table 1); conditions: post-emergence spray at 4-5 leaf stage, 250 g/ha active ingredient with 450 kg/ha water, rated after 3 weeks in greenhouse
Outline: as §1

wheat [1] = test: post-emergence stage experiment, crop (Table 1); conditions: post-emergence spray at 4-5 leaf stage, 250 g/ha active ingredient with 450 kg/ha water, rated after 3 weeks in greenhouse
Outline: as §1

rice = test: post-emergence stage experiment, crop (Table 1); conditions: post-emergence spray at 4-5 leaf stage, 250 g/ha active ingredient with 450 kg/ha water, rated after 3 weeks in greenhouse
Outline: as §1

alopecurus japonicas = test: wheat field resistant weed control, greenhouse spray at 4 leaf stage; set-up: key: Level 10: completely dead; Level 9: above 95% growth control rate; Level 8: above 90% growth control rate; Level 7: above 80% growth control rate; Level 6: above 70% growth control rate; Level 5: above 60% growth control rate; Level 4: above 50% growth control rate; Level 3: above 20% growth control rate; Level 2: 5%-20% growth control rate; Level 1: below 5% growth control rate; conditions: sprayed at 4 leaf stage, 4 weeks after treatment, resistant to ALS and ACCase inhibitor herbicides
Method: The activity level standard of harmful plant destruction (i.e. growth control rate) is as follows:
The above described growth control rate is fresh weight control rate.
The seeds of alopecurus japonicas, flixweed, shepherd's purse, corn gromwell, chickweed, beckmannia syzigachne, and annual ryegrass and wheat seeds were put into a plastic pot loaded with soil, and then covered with 0.5-2 cm soil, the seeds were allowed to grow in good greenhouse environment. The test plants were treated at 4 leaf stage 2-3 weeks after sowing. The test compounds of the present invention were dissolved in acetone respectively, then added with methyl oleate emulsion and diluted by certain amount of water to certain concentration. The solution was sprayed to the plant with a sprayer. Then the plants were cultured for 4 weeks in greenhouse.

wheat [2] = test: wheat field test, crop selectivity, greenhouse spray at 4 leaf stage; conditions: 4 weeks after treatment
Outline: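 Compounds in acetone were mixed with methyl oleate emulsion, diluted with water and applied with a sprayer to greenhouse plants at the 4 leaf stage. Growth control, expressed as fresh weight control rate, was assessed after 4 weeks of further culture.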

chickweed = test: wheat field resistant broadleaf weed control, greenhouse spray at 4 leaf stage; set-up: key: Level 10: completely dead; Level 9: above 95% growth control rate; Level 8: above 90% growth control rate; Level 7: above 80% growth control rate; Level 6: above 70% growth control rate; Level 5: above 60% growth control rate; Level 4: above 50% growth control rate; Level 3: above 20% growth control rate; Level 2: 5%-20% growth control rate; Level 1: below 5% growth control rate; conditions: 250 g/ha of the active substance; 4 weeks after treatment; ALS inhibitor resistant
Outline: (§2)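 Scored as fresh weight control rate 4 weeks after treatment: greenhouse-grown weeds at 4 leaf stage (2–3 weeks after sowing) received a spray of test compound dissolved in acetone, mixed with methyl oleate emulsion and water-diluted.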

corn gromwell = test: as above; set-up: key: Level 10: completely dead; Level 9: above 95% growth control rate; Level 8: above 90% growth control rate; Level 7: above 80% growth control rate; Level 6: above 70% growth control rate; Level 5: above 60% growth control rate; Level 4: above 50% growth control rate; Level 3: above 20% growth control rate; Level 2: 5%-20% growth control rate; Level 1: below 5% growth control rate; conditions: 250 g/ha of the active substance; 4 weeks after treatment; ALS inhibitor resistant
Outline: as §2

flixweed = test: as above; set-up: key: Level 10: completely dead; Level 9: above 95% growth control rate; Level 8: above 90% growth control rate; Level 7: above 80% growth control rate; Level 6: above 70% growth control rate; Level 5: above 60% growth control rate; Level 4: above 50% growth control rate; Level 3: above 20% growth control rate; Level 2: 5%-20% growth control rate; Level 1: below 5% growth control rate; conditions: 250 g/ha of the active substance; 4 weeks after treatment; ALS inhibitor resistant
Outline: as §2

shepherd's purse = test: as above; set-up: key: Level 10: completely dead; Level 9: above 95% growth control rate; Level 8: above 90% growth control rate; Level 7: above 80% growth control rate; Level 6: above 70% growth control rate; Level 5: above 60% growth control rate; Level 4: above 50% growth control rate; Level 3: above 20% growth control rate; Level 2: 5%-20% growth control rate; Level 1: below 5% growth control rate; conditions: 250 g/ha of the active substance; 4 weeks after treatment; ALS inhibitor resistant
Outline: as §2

[3] = 2 g/mu, sprayed at 4 leaf stage
[4] = 4 g/mu, sprayed at 4 leaf stage
[5] = 8 g/mu, sprayed at 4 leaf stage
[6] = 16 g/mu, sprayed at 4 leaf stage
[7] = 32 g/mu, sprayed at 4 leaf stage
[8] = 250 g/ha of the active substance

Compound	weed control effect, Indian mallow (level) (Indian mallow)	weed control effect, Bidens bipinnata (level) (bidens bipinnata)	weed control effect, Crab grass (level) (crab grass)	weed control effect, Echinochloa (level) (echinochloa)	weed control effect, Green foxtail (level) (foxtail)	weed control effect, Rorippa indica (level) (rorippa indica)	effect on crop, Corn (level) (corn)	effect on crop, Wheat (level) (wheat [1])	effect on crop, Rice (level) (rice)	Alopecurus japonicas weed controlling effect (activity level) (alopecurus japonicas; 1 g/mu)	Alopecurus japonicas weed controlling effect (activity level) (alopecurus japonicas; 2 g/mu)	Alopecurus japonicas weed controlling effect (activity level) (alopecurus japonicas; 4 g/mu)	Alopecurus japonicas weed controlling effect (activity level) (alopecurus japonicas; 8 g/mu)	Wheat (activity level, crop damage) (wheat [2]; [3])	Wheat (activity level, crop damage) (wheat [2]; [4])	Wheat (activity level, crop damage) (wheat [2]; [5])	Wheat (activity level, crop damage) (wheat [2]; [6])	Wheat (activity level, crop damage) (wheat [2]; [7])	Wheat (activity level, crop damage) (wheat [2]; [8])	chickweed weed controlling effect (activity level) (chickweed)	also measured
CCOc1c(C(=O)Oc2c(C(=O)c3ccc(C(F)(F)F)c(N4CCCCC4=O)c3Cl)c(C3CC3)nn2C)cnn1C [Compound 048]	10	4 (Level 4: above 50% growth control rate)	7 (Level 7: above 80% growth control rate)	6 (Level 6: above 70% growth control rate)	8 (Level 8: above 90% growth control rate)	10	3 (Level 3: above 20% growth control rate)	1 (Level 1: below 5% growth control rate)	5 (Level 5: above 60% growth control rate)	8 (Level 8: above 90% growth control rate)	10	10	10	0	0	0	1 (Level 1: below 5% growth control rate)	4 (Level 4: above 50% growth control rate)	0	10	corn gromwell weed controlling effect (activity level) (corn gromwell): 10; flixweed weed controlling effect (activity level) (flixweed): 10; shepherd's purse weed controlling effect (activity level) (shepherd's purse): 10
Cn1nc(C2CC2)c(C(=O)c2ccc(C(F)(F)F)c(N3CCCCC3=O)c2Cl)c1O [Compound 046]	10	2 (Level 2: 5%-20% growth control rate)	6 (Level 6: above 70% growth control rate)	6 (Level 6: above 70% growth control rate)	10	10	4 (Level 4: above 50% growth control rate)	0	5 (Level 5: above 60% growth control rate)	6 (Level 6: above 70% growth control rate)	9 (Level 9: above 95% growth control rate)	10	10	0	0	0	0	1 (Level 1: below 5% growth control rate)	0	10	corn gromwell weed controlling effect (activity level) (corn gromwell): 10; flixweed weed controlling effect (activity level) (flixweed): 10; shepherd's purse weed controlling effect (activity level) (shepherd's purse): 10
